Laboratory results: PubChem BioAssay AID1259411 (Chemical Carcinogenesis Research Information System (CCRIS), 2018)
Calls of active or inactive are those of the source. How the calls were made is not given here.

Tested on: rodent carcinogenicity bioassays, tumor incidence
Assay: CCRIS carcinogenicity studies
In short: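 Archive of carcinogenicity, mutagenicity, tumor promotion and tumor inhibition results drawn from journals, NCI reports and other sources, expert-reviewed; covers 1985-2011 and is no longer updated.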

With `c1ccc2ncccc2c1` as the compound, how does the carcinogen call (Species: MOUSE, Route: ORAL, Tumor Site: Type of Lesion: LIVER) read?
Its carcinogen call is “active; positive”.

What about the carcinogen call (Species: MOUSE, Strain/Sex: CD-1/FEMALE, Route: INTRAPERITONEAL, Dose: 0, 0.25, 0.5, 1.0 UMOL IN DMSO TO NEWBORN MICE ON DAYS 1, 8 AND 15 OF LIFE RESPECTIVELY (TOTAL DOSE: 1.75 UMOL) (STUDY D, Dose: 0, 0.25, 0.5, 1.0 UMOL IN DMSO TO NEWBORN MICE ON DAYS 1, 8 AND 15 OF LIFE RESPECTIVELY (TOTAL DOSE: 1.75 UMOL) (STUDY D) of the same compound?
Its carcinogen call is “inactive; negative”.

And the carcinogen call (Species: MOUSE, Strain/Sex: CD-1/FEMALE, Route: INTRAPERITONEAL, Dose: 0, 1.75 UMOL/MOUSE (TOTAL DOSE) ADMINISTERED DURING DAYS 1, 8, AND 15 OF LIFE (STUDY DURATION: 52 WK))?
Its carcinogen call is “inactive; negative”.

What about the carcinogen call (Species: MOUSE, Strain/Sex: CD-1/MALE, Route: INTRAPERITONEAL, Dose: 0, 0.25, 0.5, 1.0 UMOL IN DMSO TO NEWBORN MICE ON DAY 1,8 AND 15 OF LIFE RESPECTIVELY (TOTAL DOSE: 1,75 UMOL) (STUDY DUR, Dose: 0, 0.25, 0.5, 1.0 UMOL IN DMSO TO NEWBORN MICE ON DAY 1,8 AND 15 OF LIFE RESPECTIVELY (TOTAL DOSE: 1,75 UMOL) (STUDY DUR, Tumor Site: Type of Lesion: LIVER: HEPATOMA, ADENOMA) of the same compound?
Its carcinogen call is “active; positive”.

And the carcinogen call (Species: MOUSE, Strain/Sex: CD-1/MALE, Route: INTRAPERITONEAL, Dose: 0, 1.75 UMOL/MOUSE (TOTAL DOSE) ADMINISTERED DURING DAYS 1, 8, AND 15 OF LIFE (STUDY DURATION: 52 WK), Tumor Site: Type of Lesion: LIVER: ADENOMA OR CARCINOMA)?
The carcinogen call was “active; positive”.

What about the carcinogen call (Species: RAT, Route: ORAL, Tumor Site: Type of Lesion: LIVER) of the same compound?
Its carcinogen call is “active; positive”.

And the carcinogen call (Species: RAT, Strain/Sex: SPRAGUE-DAWLEY/FEMALE, Route: SUBCUTANEOUS, Dose: 0, 200 UMOL/KG IN DMSO INTO SUPRASCAPULAR AREA ON DAY 1 OF LIFE FOLLOWED BY 0, 100 UMOL 1/WK AT WK 2-7 THEN 0, 200 UMOL/, Dose: 0, 200 UMOL/KG IN DMSO INTO SUPRASCAPULAR AREA ON DAY 1 OF LIFE FOLLOWED BY 0, 100 UMOL 1/WK AT WK 2-7 THEN 0, 200 UMOL/)?
The carcinogen call was “inactive; negative”.

What about the carcinogen call (Species: RAT, Strain/Sex: SPRAGUE-DAWLEY/MALE, Route: SUBCUTANEOUS, Dose: 0, 200 UMOL/KG IN DMSO INTO SUPRASCAPULAR AREA ON DAY 1 OF LIFE FOLLOWED BY 0, 100 UMOL 1/WK AT WK 2-7 THEN 0, 200 UMOL/, Dose: 0, 200 UMOL/KG IN DMSO INTO SUPRASCAPULAR AREA ON DAY 1 OF LIFE FOLLOWED BY 0, 100 UMOL 1/WK AT WK 2-7 THEN 0, 200 UMOL/) of the same compound?
Its carcinogen call is “inactive; negative”.

And the carcinogen call (Species: RAT, Strain/Sex: WISTAR/MALE, Route: ORAL, Dose: 0, 0.25% IN DIET FOR 4 WK (STUDY DURATION: 20 WK))?
Its carcinogen call is “inactive; negative”.

What about the carcinogen call (Species: RAT, Strain/Sex: WISTAR/MALE, Route: ORAL, Dose: 0, 0.25% IN DIET FOR 8 WK (STUDY DURATION: 20 WK)) of the same compound?
Its carcinogen call is “inactive; negative”.

What about the carcinogen call (Species: RAT, Strain/Sex: WISTAR/MALE, Route: ORAL, Dose: 0, 0.25% IN DIET FOR 12 WK (STUDY DURATION: 20 WK), Tumor Site: Type of Lesion: LIVER: HEMANGIOENDOTHELIOMA) of the same compound?
The carcinogen call was “active; positive”.

What about the carcinogen call (Species: RAT, Strain/Sex: WISTAR/MALE, Route: ORAL, Dose: 0, 0.25% IN DIET FOR 16 WK (STUDY DURATION: 20 WK), Tumor Site: Type of Lesion: LIVER: HEMANGIOENDOTHELIOMA) of the same compound?
Its carcinogen call is “active; positive”.

What about the carcinogen call (Species: RAT, Strain/Sex: WISTAR/MALE, Route: ORAL, Dose: 0, 0.25% IN DIET FOR 20 WK (STUDY DURATION: 20 WK), Tumor Site: Type of Lesion: LIVER: HEMANGIOENDOTHELIOMA) of the same compound?
The carcinogen call was “active; positive”.

For `CN(CCC=O)N=O`, which carcinogen call (Species: RAT, Strain/Sex: F344/MALE, Route: SUBCUTANEOUS, Dose: 0, 6.57 MG (0.057 MMOL) IN 0.3 ML TRIOCTANOIN 3 D/WK FOR 15 WK (STUDY DURATION: 100 WK), Tumor Site: Type of Lesion: NASAL CAVITY: PAPILLOMA, LIVER: ADENOMA, LUNG: ADENOMA, Tumor Site: Type of Lesion: NASAL CAVITY: PAPILLOMA, LIVER: ADENOMA, LUNG: ADENOMA) is on record?
The carcinogen call was “active; positive”.

For `[Ni]#[Sb]`, which carcinogen call (Species: RAT, Strain/Sex: F344/MALE, Route: INTRAMUSCULAR, Tumor Site: Type of Lesion: INJECTION SITE: SARCOMA) is on record?
The carcinogen call was “active; positive”.

What does the source list for `CC1CS(=O)(=O)CCN1/N=C/c1ccc([N+](=O)[O-])o1` (stereo not drawn)?
carcinogen call (Species: MOUSE, Strain/Sex: SWISS/FEMALE, Route: INTRAPERITONEAL, Dose: 0, 8 UG/G BW 1/D FOR 30 DAYS (STUDY DURATION: LIFETIME), Tumor Site: Type of Lesion: LYMPHATIC SYSTEM: LYMPHOMA): active; positive; carcinogen call (Species: MOUSE, Strain/Sex: SWISS/FEMALE, Route: INTRAPERITONEAL, Dose: 0, 8 UG/G BW 1/D FOR 60 DAYS (STUDY DURATION: LIFETIME), Tumor Site: Type of Lesion: LYMPHATIC SYSTEM: LYMPHOMA): active; positive

`CC(=O)CN(CC(C)O)N=O` (stereo not drawn) was tested. Which carcinogen call (Species: RAT, Strain/Sex: F344/FEMALE, Route: INTRAVESICULAR, Dose: 0, 2.5 MG IN 0.2 ML ETHANOL:DEIONIZED WATER (1:3) 2/WK FOR 22 WK (TOTAL DOSE 0.7 MMOL) (STUDY DURATION: LIFESPAN), Tumor Site: Type of Lesion: BLADDER: TUMOR, LIVER: TUMOR) did it give?
The carcinogen call was “active; positive”.

And the carcinogen call (Species: RAT, Strain/Sex: F344/FEMALE, Route: ORAL, Dose: 0, 55, 220 MG/L DRINKING WATER 5 D/WK FOR 40, 21 WK (TOTAL DOSE 220; 460 MG) (STUDY DURATION: LIFESPAN), Dose: 0, 55, 220 MG/L DRINKING WATER 5 D/WK FOR 40, 21 WK (TOTAL DOSE 220; 460 MG) (STUDY DURATION: LIFESPAN), Tumor Site: Type of Lesion: LIVER: CARCINOMA, ANGIOSARCOMA, LUNG: TUMOR, ESOPHAGUS: CARCINOMA, PAPILLOMA, NASAL CAVITY: TUMOR, Tumor Site: Type of Lesion: LIVER: CARCINOMA, ANGIOSARCOMA, LUNG: TUMOR, ESOPHAGUS: CARCINOMA, PAPILLOMA, NASAL CAVITY: TUMOR)?
Its carcinogen call is “active; positive”.

How did the carcinogen call (Species: MOUSE, Strain/Sex: B6C3F1/FEMALE, Route: INTRAPERITONEAL, Dose: 0, 20, 40 MG/KG 3/WK FOR 52 WK (STUDY DURATION: 52 WK), Dose: 0, 20, 40 MG/KG 3/WK FOR 52 WK (STUDY DURATION: 52 WK), Tumor Site: Type of Lesion: SUBCUTANEOUS TISSUE: SQUAMOUS CELL CARCINOMA, HEMATOPOIETIC SYSTEM: MALIGNANT LYMPHOMA) turn out when `CS(=O)(=O)OCCCNCCCOS(C)(=O)=O` was run?
The carcinogen call was “equivocal”.

What about the carcinogen call (Species: MOUSE, Strain/Sex: B6C3F1/MALE, Route: INTRAPERITONEAL, Dose: 0, 20, 40 MG/KG 3/WK FOR 52 WK (STUDY DURATION: 52 WK), Dose: 0, 20, 40 MG/KG 3/WK FOR 52 WK (STUDY DURATION: 52 WK), Tumor Site: Type of Lesion: SUBCUTANEOUS TISSUE: SQUAMOUS CELL CARCINOMA, HEMATOPOIETIC SYSTEM: MALIGNANT LYMPHOMA) of the same compound?
Its carcinogen call is “equivocal”.

What about the carcinogen call (Species: RAT, Strain/Sex: SPRAGUE-DAWLEY/FEMALE, Route: INTRAPERITONEAL, Dose: 0, 12 MG/KG 3/WK FOR 52 WK, 24 MG/KG 3/WK FOR 34 WK, 48 MG/KG 3/WK FOR 27 WK (STUDY DURATION: 27-52 WK), Dose: 0, 12 MG/KG 3/WK FOR 52 WK, 24 MG/KG 3/WK FOR 34 WK, 48 MG/KG 3/WK FOR 27 WK (STUDY DURATION: 27-52 WK), Tumor Site: Type of Lesion: PERITONEUM: SARCOMA, FIBROMA OR FIBROSARCOMA) of the same compound?
The carcinogen call was “equivocal”.

And the carcinogen call (Species: RAT, Strain/Sex: SPRAGUE-DAWLEY/MALE, Route: INTRAPERITONEAL, Dose: 0, 12 MG/KG 3/WK FOR 52 WK, 24 MG/KG 3/WK FOR 34 WK, 48 MG/KG 3/WK FOR 23 WK (STUDY DURATION: 23-52 WK), Dose: 0, 12 MG/KG 3/WK FOR 52 WK, 24 MG/KG 3/WK FOR 34 WK, 48 MG/KG 3/WK FOR 23 WK (STUDY DURATION: 23-52 WK), Tumor Site: Type of Lesion: PERITONEUM: SARCOMA, FIBROMA OR FIBROSARCOMA)?
Its carcinogen call is “equivocal”.
